Test results: patent publication US20050244971A1, “Transgenic plants with enhanced stress tolerance” (KOREA KUMHO PETROCHEMICAL CO., LTD., priority 2002, published 2005)

Assays:
[1] = tested on: 35S-ABF and wild type plants; test: Effect of ACC and IAA on growth of 35S-ABF versus wild type plants; set-up: species or system Arabidopsis thaliana; settings: in vivo
Description: According to the studies, ABA-mediated inhibition of germination is negatively regulated by ethylene, whereas ethylene signaling components are required for the ABA inhibition of root growth (Beaudoin et al., 2000; Ghassemian et al., 2000). […] When exposed to progressive drought, new lateral roots take a short and tuberized form. The process, known as ‘drought rhizogenesis’, is impaired not only in the ABA deficient aba-1 and ABA-insensitive abi1-1 mutants but also in the auxin resistant axr1-3 mutant. To test whether the overexpression of ABF3 or ABF4 affected ethylene or auxin sensitivity, we compared the effects of the ethylene precursor 1-aminocyclopropane-1-carboxylic acid (ACC) and indole-3-acetic acid (IAA) on the growth of 35S-ABF and wild type plants. […] However, leaves of 35S-ABF4 plants have a tendency to have epinastic curvature when grown on plates (FIG. 4A), which is generally attributed to ethylene action under stress conditions (Jackson, 1997). […] Thus, the result implies that auxin signaling pathway(s) might have been perturbed in 35S-ABF4 plants.

[2] = tested on: 35S-ABF plants; test: Salt effect on germination and newly germinated seedling growth; format: in vivo, Arabidopsis thaliana
Protocol: (§1) FIG. 3. […] (A) Salt effect on germination. Seeds of Ler, aba1-1, abi1-1, abi2-1, 35S-ABF3 (line A319) and 35S-ABF4 (line A405) were plated after 4 days of cold treatment on media containing 50, 100, or 150 mM NaCl, and germination (fully open cotyledons) was scored after 4 days. Experiments were done in triplicates (n=50 each), and standard errors are smaller than the symbols. (B) Salt effect on newly germinated seedling growth. Seeds of the same transgenic lines were germinated for 4 days on media containing 100 mM of NaCl, KCl or mannitol, and representative seedlings are shown. (C) Glucose response of 35S-ABF transgenic plants. Seeds were germinated and grown for 14 days on the regular growth medium or the same medium supplemented with 3% glucose or mannitol at vertical position. A319, A333, A405, and A406 indicate transgenic lines.
(§2) High concentrations of salts inhibit the germination of Arabidopsis (Werner and Finkelstein, 1995; Leon-Kloosterziel et al., 1996; Quesada et al., 2000; Zhu, 2000). […] To test this, 35S-ABF transgenic plants were germinated on media containing various concentrations of NaCl.
(§3) Plants were grown at 22° C. under long day condition (16 hr light/8 hr dark cycle) aseptically or on soil. […]

[3] = tested on: wild type plants; settings: NaCl below 100 mM; wild type (also aba1, abi1, abi2 mutants)
Protocol: as §1, §2, §3

[4] = tested on: 35S-ABF transgenic lines; test: Glucose response of seedlings; format: in vivo, Arabidopsis thaliana; settings: 3% mannitol; both wild type and 35S-ABF transgenic plants
Protocol: as §1
Plants were grown at 22° C. under long day condition (16 hr light/8 hr dark cycle) aseptically or on soil. For soil growth, seeds were sown on 1:1:1 mixture of vermiculite, perlite and peat moss irrigated with 0.1% Hyponex, placed at 4° C. for 4 days in the dark to break residual dormancy, and transferred to normal growth conditions. Unless otherwise stated, the plants were watered once a week. […]

[5] = tested on: 35S-ABF3 transgenic plants (line A319); test: ABA dose-response of root growth; format: in vivo; settings: Arabidopsis thaliana, 120 h, root elongation 5 days after transfer, read-out: root growth, % of control rate
Protocol: (§4) FIG. 2. ABA Sensitivity of 35S-ABF3 and 35S-ABF4 Plants. (A) Growth of transgenic plants on medium containing 0.5 μM ABA. Seeds were germinated and grown for 12 days. (B) Growth of transgenic plants on medium containing 0.25 μM ABA. Seeds were germinated on the medium for 3 days and representative plants are shown. (C) ABA dose-response of germination. Seeds, 6 months old after harvest and pre-chilled at 4° C. for 4 days, were germinated on media containing various concentrations of ABA, and seedlings with fully emerged radicles were counted after 3 days. Experiments were done in triplicates (n=50 each), and the bars show standard errors. (D) ABA dose-response of root growth. Seeds were germinated for 4 days on ABA-free medium and the seedlings (n=6) were transferred to media containing various concentrations of ABA. Root elongation was measured 5 days after the transfer. The experiments were performed more than four times, sometimes using different transgenic lines, and the results were consistent. The small bars represent standard errors. Transgenic lines A319 (ABF3) and A405 (ABF4) were used.
(§5) To see the stage-specificity of ABA response, ABA dose-response was examined during and after germination. […] Likewise, root growth of the 35S-ABF transgenic lines was hypersensitive to ABA (FIG. 2D). At 0.5 μM ABA, wild type root growth was 84% of its control rate, whereas those of 35S-ABF4 and 35S-ABF3 plants were 35% and 51% of their control rates, respectively. At 1 μM ABA, root growth of the 35S-ABF4 plants reduced to 6% and the 35S-ABF3 plants to 37%. […] Wild type plants grew at 62% of the control rate at the same ABA concentration.

[6] = tested on: 35S-ABF4 transgenic plants (line A405); test: ABA dose-response of root growth; format: in vivo; settings: Arabidopsis thaliana, 120 h, root elongation 5 days after transfer, read-out: root growth, % of control rate
Protocol: as §4, §5

[7] = tested on: 35S-ABF3 transgenic plants (line A319); test: ABA dose-response of germination; format: in vivo, Arabidopsis thaliana; settings: 0.5 μM ABA, fully emerged radicles counted after 3 days
Protocol: as §4, §5

[8] = tested on: 35S-ABF4 transgenic plants (line A405); test: ABA dose-response of germination; format: in vivo, Arabidopsis thaliana; settings: 0.5 μM ABA, fully emerged radicles counted after 3 days
Protocol: as §4, §5

[9] = tested on: wild type plants (Ler); test: ABA dose-response of germination; format: in vivo, Arabidopsis thaliana; settings: 0.5 μM ABA, fully emerged radicles counted after 3 days
Protocol: as §4, §5

[10] = tested on: 35S-ABF plants; test: Germination and growth on ABA-containing medium; format: in vivo, Arabidopsis thaliana; settings: ABA 0.5 μM or above
Protocol: as §4
(§6) To test whether ABF3 or ABF4 overexpression affected ABA sensitivity, 35S-ABF3 and 35S-ABF4 transgenic plants were germinated and grown on media containing various concentrations of ABA. […]

[11] = tested on: wild type plants; test: Germination and growth on ABA-containing medium; format: in vivo, Arabidopsis thaliana; settings: ABA 0.5 μM or above
Protocol: as §4, §6

[12] = tested on: 35S-ABF transgenic plants; test: ABA dose-response of root growth; format: in vivo, Arabidopsis thaliana; settings: ABA concentration above 5 μM
Protocol: as §4, §5

[13] = tested on: wild type plants (Ler); test: ABA dose-response of root growth; format: in vivo, Arabidopsis thaliana
Protocol: as §4, §5

Compound: NC1(C(=O)O)CC1 [ACC, 1-aminocyclopropane-1-carboxylic acid]
- difference in growth response between 35S-ABF and wild type plants [1]: did not see any differences

Compound: O=C(O)Cc1c[nH]c2ccccc12 [IAA, indole-3-acetic acid]
- difference in growth response between 35S-ABF and wild type plants [1]: did not see any differences

Compound: [Cl-].[Na+] [NaCl]
- germination and growth ([2]; 100 mM NaCl): significantly affected
- germination [3]: not affected

Compound: OC[C@@H](O)[C@@H](O)[C@H](O)[C@H](O)CO [mannitol]
- growth inhibition [4]: significantly but similarly
- response of germination/seedling growth ([2]; mannitol, same or twice the concentration (100 mM)): normal

Compound: CC1=CC(=O)CC(C)(C)[C@@]1(O)/C=C/C(C)=C\C(=O)O [ABA, abscisic acid]
- activity at 0.5 µM ([5]; 0.5 μM ABA): 51%
- activity at 1 µM ([5]; 1 μM ABA): 37%
- activity at 0.5 µM ([6]; 0.5 μM ABA): 35%
- activity at 1 µM ([6]; 1 μM ABA): 6%
- germination efficiency [7]: 8%
- germination efficiency [8]: 28%
- germination [9]: 80%
- growth after radicle emergence [10]: completely arrested
- growth after radicle emergence [11]: continued to grow and develop
- root growth [12]: almost completely arrested
- root growth ([13]; ABA concentration above 5 μM): still continued to grow
- activity at 0.5 µM ([13]; Arabidopsis thaliana, 120 h, 0.5 μM ABA, root elongation 5 days after transfer, read-out: root growth, % of control rate): 84%
- activity at 1 µM ([13]; Arabidopsis thaliana, 120 h, 1 μM ABA, root elongation 5 days after transfer, read-out: root growth, % of control rate): 62%
